What was measured:
Smn protein = Smn protein assay in cultured cells (SMN HTRF); format: cell-based, human; conditions: 48 hours; for maximum fold (Fold) increase of Smn protein: SMA patient fibroblast cells, 7-point concentration data, fold increase relative to vehicle control (SMN HTRF); for EC1.5x (concentration giving 1.5-fold Smn protein increase): SMA Type 1 patient fibroblast cells (GM03813), 7-point concentration curve, SMN HTRF, concentration producing 1.5 times Smn protein vs DMSO vehicle control, read-out: EC1.5x for Smn protein expression
Summary of the method: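 Smn in SMA fibroblast lysates, measured by anti-SMN HTRF after 48 h compound exposure; EC1.5x from fold change over vehicle.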

[1] = tested on: SMN2 minigene (full length SMN2 minigene mRNA containing SMN2 exon 7); test: SMN2 minigene mRNA splicing RT-qPCR assay in cultured cells; format: cell-based, human; conditions: Homo sapiens, HEK293-H; HEK293H cells stably transfected with SMN2-A minigene; 24 hours; 7-point concentration curve; 1.5-fold relative to vehicle-treated cells; read-out: EC1.5x for production of full length SMN2 mRNA
Summary of the method: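 Lysates → one-step RT-qPCR, minigene-specific primers (0.4 μM final) + GAPDH multiplex, 40 cycles. FL/GAPDH vs DMSO; EC1.5x, star-binned.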

SMILES: Cc1ccn2cc(-c3cc4ccc(N5C[C@@H](C)N[C@@H](C)C5)cc4oc3=O)nc2n1 [Compound 225, 7-[(3R,5S)-3,5-dimethylpiperazin-1-yl]-3-(7-methylimidazo[1,2-a]pyrimidin-2-yl)-2H-chromen-2-one]
- melting point: 246 to 252 °C
- maximum fold (Fold) increase of Smn protein (Smn protein): *** (fold increase between >1.35 and ≤1.5)
- EC (1.5-fold) [1]: 0.3 to 1 µM

SMILES: CCN1CCC[C@H]2CN(c3ccc4cc(-c5cn6cc(C)nc(C)c6n5)c(=O)oc4c3)C[C@H]21 [Compound 803, 3-(6,8-dimethylimidazo[1,2-a]pyrazin-2-yl)-7-[(4aS,7aS)-1-ethyloctahydro-6H-pyrrolo[3,4-b]pyridin-6-yl]-2H-chromen-2-one]
- melting point: 217 to 221 °C
- maximum fold (Fold) increase of Smn protein (Smn protein): *** (fold increase between >1.35 and ≤1.5)
- EC (1.5-fold) [1]: < 0.1 µM

SMILES: CCN1CCCN(c2ccc3cc(-c4cc5cnc(C)cn5c4)c(=O)oc3c2)CC1 [Compound 667, 7-(4-ethyl-1,4-diazepan-1-yl)-3-(3-methylpyrrolo[1,2-a]pyrazin-7-yl)-2H-chromen-2-one]
- melting point: 130 to 133 °C
- EC1.5x (concentration giving 1.5-fold Smn protein increase) (Smn protein): < 300 nM
- maximum fold (Fold) increase of Smn protein (Smn protein): **** (fold increase between >1.5 and ≤1.65)
- EC (1.5-fold) [1]: < 0.1 µM

SMILES: CN1CCC(c2ccc3cc(-c4ccc5nn(C)cc5c4)c(=O)oc3c2)CC1 [Compound 862, 3-(2-methyl-2H-indazol-5-yl)-7-(1-methylpiperidin-4-yl)-2H-chromen-2-one]
- melting point: 215 to 218 °C
- EC1.5x (concentration giving 1.5-fold Smn protein increase) (Smn protein): 300 to 1000 nM
- maximum fold (Fold) increase of Smn protein (Smn protein): ***** (fold increase >1.65)
- EC (1.5-fold) [1]: < 0.1 µM

SMILES: Cc1cn2cc(-c3cc4ccc(CCCN(C)C)cc4oc3=O)cc(F)c2n1 [Compound 909, 7-[3-(dimethylamino)propyl]-3-(8-fluoro-2-methylimidazo[1,2-a]pyridin-6-yl)-2H-chromen-2-one]
- melting point: 185 to 188 °C
- EC1.5x (concentration giving 1.5-fold Smn protein increase) (Smn protein): < 300 nM
- maximum fold (Fold) increase of Smn protein (Smn protein): ***** (fold increase >1.65)
- EC (1.5-fold) [1]: < 0.1 µM

SMILES: O=c1oc2cc(N3CCNCC3)ccc2cc1-c1ccc2[nH]ncc2c1 [Compound 91, 3-(1H-indazol-5-yl)-7-(piperazin-1-yl)-2H-chromen-2-one]
- melting point: 250 to 252 °C
- maximum fold (Fold) increase of Smn protein (Smn protein): ** (fold increase between >1.2 and ≤1.35)
- EC (1.5-fold) [1]: 0.3 to 1 µM

SMILES: Cc1ccn2cc(-c3cc4ccc(N5CC6CCC5CN6)cc4oc3=O)nc2c1 (stereo not shown) [Compound 597, 7-(2,5-diazabicyclo[2.2.2]oct-2-yl)-3-(7-methylimidazo[1,2-a]pyridin-2-yl)-2H-chromen-2-one]
- melting point: 196 to 215 °C
- EC1.5x (concentration giving 1.5-fold Smn protein increase) (Smn protein): < 300 nM
- maximum fold (Fold) increase of Smn protein (Smn protein): **** (fold increase between >1.5 and ≤1.65)
- EC (1.5-fold) [1]: < 0.1 µM

SMILES: O=c1oc2cc(N3CCNCC3)cc(F)c2cc1-c1nc2ccccc2[nH]1 [Compound 375, 3-(1H-benzimidazol-2-yl)-5-fluoro-7-(piperazin-1-yl)-2H-chromen-2-one]
- melting point: 245 to 250 °C
- maximum fold (Fold) increase of Smn protein (Smn protein): ** (fold increase between >1.2 and ≤1.35)
- EC (1.5-fold) [1]: 0.3 to 1 µM

SMILES: Cc1cn2cc(-c3cc4ccc(C5CCN(CCO)CC5)cc4oc3=O)nc2cn1 [Compound 843, 7-[1-(2-hydroxyethyl)piperidin-4-yl]-3-(6-methylimidazo[1,2-a]pyrazin-2-yl)-2H-chromen-2-one]
- melting point: 230 to 236 °C
- EC1.5x (concentration giving 1.5-fold Smn protein increase) (Smn protein): < 300 nM
- maximum fold (Fold) increase of Smn protein (Smn protein): **** (fold increase between >1.5 and ≤1.65)
- EC (1.5-fold) [1]: < 0.1 µM

SMILES: Cc1cn2cc(-c3cc4ccc(N5C[C@H]6CCN(C)[C@H]6C5)cc4oc3=O)nc2c(C)n1 [Compound 704, 3-(6,8-dimethylimidazo[1,2-a]pyrazin-2-yl)-7-[(3aR,6aR)-1-methylhexahydropyrrolo[3,4-b]pyrrol-5(1H)-yl]-2H-chromen-2-one]
- melting point: 255 to 263 °C
- EC1.5x (concentration giving 1.5-fold Smn protein increase) (Smn protein): < 300 nM
- maximum fold (Fold) increase of Smn protein (Smn protein): **** (fold increase between >1.5 and ≤1.65)
- EC (1.5-fold) [1]: < 0.1 µM

SMILES: Cc1cn2cc(-c3cc4ccc(O[C@@H]5CCN(C(C)C)C5)cc4oc3=O)nc2c(C)n1 [Compound 891, 3-(6,8-dimethylimidazo[1,2-a]pyrazin-2-yl)-7-{[(3R)-1-(propan-2-yl)pyrrolidin-3-yl]oxy}-2H-chromen-2-one]
- melting point: 176 to 179 °C
- EC1.5x (concentration giving 1.5-fold Smn protein increase) (Smn protein): 300 to 1000 nM
- maximum fold (Fold) increase of Smn protein (Smn protein): ***** (fold increase >1.65)
- EC (1.5-fold) [1]: 0.1 to 0.3 µM

SMILES: Cc1csc(-c2cc3ccc(N4CCCN(C)CC4)cc3oc2=O)n1 [Compound 285, 7-(4-methyl-1,4-diazepan-1-yl)-3-(4-methyl-1,3-thiazol-2-yl)-2H-chromen-2-one]
- melting point: 190 to 200 °C
- maximum fold (Fold) increase of Smn protein (Smn protein): * (maximum fold increase of ≤1.2)
- EC (1.5-fold) [1]: 1 to 3 µM

SMILES: Cc1cn2cc(-c3cc4ccc(C5CCN(C6CCC6)CC5)cc4oc3=O)nc2cn1 [Compound 869, 7-(1-cyclobutylpiperidin-4-yl)-3-(6-methylimidazo[1,2-a]pyrazin-2-yl)-2H-chromen-2-one]
- melting point: 256 to 268 °C
- EC1.5x (concentration giving 1.5-fold Smn protein increase) (Smn protein): < 300 nM
- maximum fold (Fold) increase of Smn protein (Smn protein): ***** (fold increase >1.65)
- EC (1.5-fold) [1]: < 0.1 µM

SMILES: Cc1cn2cc(-c3cc4ccc(N5C[C@@H]6C[C@H]5CN6C)cc4oc3=O)nc2c(C)n1 [Compound 696, 3-(6,8-dimethylimidazo[1,2-a]pyrazin-2-yl)-7-[(1S,4S)-5-methyl-2,5-diazabicyclo[2.2.1]hept-2-yl]-2H-chromen-2-one]
- melting point: 219 to 226 °C
- EC1.5x (concentration giving 1.5-fold Smn protein increase) (Smn protein): < 300 nM
- maximum fold (Fold) increase of Smn protein (Smn protein): ***** (fold increase >1.65)
- EC (1.5-fold) [1]: < 0.1 µM

SMILES: CN1CCCN(c2ccc3cc(-c4cc5ccccn5n4)c(=O)oc3c2)CC1 [Compound 193, 7-(4-methyl-1,4-diazepan-1-yl)-3-(pyrazolo[1,5-a]pyridin-2-yl)-2H-chromen-2-one]
- melting point: 159 to 163 °C
- EC1.5x (concentration giving 1.5-fold Smn protein increase) (Smn protein): 3000 to 10000 nM
- maximum fold (Fold) increase of Smn protein (Smn protein): ** (fold increase between >1.2 and ≤1.35)
- EC (1.5-fold) [1]: 0.1 to 0.3 µM

SMILES: Cc1ccc2nc(-c3cc4ccc(N5C[C@@H]6C[C@H]5CN6)cc4oc3=O)cn2c1 [Compound 173, 7-[(1S,4S)-2,5-diazabicyclo[2.2.1]hept-2-yl]-3-(6-methylimidazo[1,2-a]pyridin-2-yl)-2H-chromen-2-one]
- melting point: 212 to 215 °C
- maximum fold (Fold) increase of Smn protein (Smn protein): ** (fold increase between >1.2 and ≤1.35)
- EC (1.5-fold) [1]: 0.3 to 1 µM

SMILES: C[C@H]1CN(c2cc(F)c3cc(-c4cn5cccc(Cl)c5n4)c(=O)oc3c2)CCN1 [Compound 393, 3-(8-chloroimidazo[1,2-a]pyridin-2-yl)-5-fluoro-7-[(3S)-3-methylpiperazin-1-yl]-2H-chromen-2-one]
- melting point: 268 to 278 °C
- maximum fold (Fold) increase of Smn protein (Smn protein): *** (fold increase between >1.35 and ≤1.5)
- EC (1.5-fold) [1]: 0.3 to 1 µM

SMILES: COc1ccn2cc(-c3cc4ccc(N5CCN[C@@H](C)C5)cc4oc3=O)nc2c1 [Compound 434, 3-(7-methoxyimidazo[1,2-a]pyridin-2-yl)-7-[(3S)-3-methylpiperazin-1-yl]-2H-chromen-2-one]
- melting point: 250 to 256 °C
- maximum fold (Fold) increase of Smn protein (Smn protein): ** (fold increase between >1.2 and ≤1.35)
- EC (1.5-fold) [1]: 1 to 3 µM

SMILES: CN1CCN(c2ccc3cc(-c4cn5cccc(C(F)(F)F)c5n4)c(=O)oc3c2)CC1 [Compound 210, 7-(4-methylpiperazin-1-yl)-3-[8-(trifluoromethyl)imidazo[1,2-a]pyridin-2-yl]-2H-chromen-2-one]
- melting point: 235 to 237 °C
- maximum fold (Fold) increase of Smn protein (Smn protein): * (maximum fold increase of ≤1.2)
- EC (1.5-fold) [1]: 0.3 to 1 µM
